Experiments:
TPST1 = biological target: T1, TPST1 (Homo sapiens, UniProt O60507); assay: Microfluidic mobility shift sulfation assay, TPST1 (fluorescent CC4-tide substrate); type: biochemical; details: for IC50: read-out: IC50 against TPST1
T1 construct: Human TPST1 (residues Lys43-Leu360) enzyme was purified as a recombinant protein; made in house
T1 sequence (O60507 43-360): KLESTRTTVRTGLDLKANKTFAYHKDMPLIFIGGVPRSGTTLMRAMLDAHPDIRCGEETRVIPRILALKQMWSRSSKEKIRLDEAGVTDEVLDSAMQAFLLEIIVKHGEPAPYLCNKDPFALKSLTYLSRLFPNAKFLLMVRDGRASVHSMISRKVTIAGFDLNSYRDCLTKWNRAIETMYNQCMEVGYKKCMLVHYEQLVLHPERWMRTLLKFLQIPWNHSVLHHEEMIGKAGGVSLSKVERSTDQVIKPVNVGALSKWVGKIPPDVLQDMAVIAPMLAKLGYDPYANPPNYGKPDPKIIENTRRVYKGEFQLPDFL
Experimental: (§1) Compounds were initially screened at 400 μM in the presence 20 nM HS2ST and 0.1 μM TPST1 respectively.
Fig. 4 Summary of enzymatic inhibition assays against HS2ST and TPST1. (A) Enzymatic analysis of HS2ST1 inhibition by a panel of PAP- and PAPS-mimetic compounds. […] HS2ST sulfotransferase activity was assayed using a fluorescent hexasaccharide substrate (2 μM) and normalised to DMSO (4% v/v) or buffer control. Data shown is mean and SD of 4 repeat experiments. (B) Full dose–response curves for selected compounds. […] HS2ST activity calculated as previously described. Data from two independent experiments are combined. (C) Enzymatic analysis of TPST1 inhibition by a panel of PAP- and PAPS-mimetic compounds. […] TPST1 activity was measured using fluorescently-labelled CC4-tide (2 μM) and normalised to DMSO (4% v/v) or buffer control. (D) Full dose–response curves for selected compounds. […] TPST1 activity was measured using CC4-tide and normalised to DMSO or buffer controls as previously described. The data shown is from duplicate experiments. […]
TPST1 peptide substrate (CC4-tide, 5-FAM-EDFED YEFDG-CONH2) was synthesised using solid-phase Fmoc chemistry (Pepceuticals, Leicester, UK). All standard laboratory biochemicals, were purchased from Sigma, and were of the highest analytical quality.
(§2) 5'-phosphosulfate, lithium salt hydrate, PAP (adenosine 3',5'-diphosphate, disodium salt), CoA (coenzymeA, sodium salt), ATP (adenosine 5’-triphosphate, disodium salt hydrate) were all purchased from Sigma and stored at -80 °C to minimise degradation.
Recombinant Protein Production and SDS-PAGE
Human TPST1 (residues Lys43-Leu360) enzyme was purified as a recombinant protein containing an N-terminal 6xHis tag as previously described. […]
(§3) Microfluidics-Based Sulfation Assay
(§4) Non-radioactive microfluidic mobility shift peptide and carbohydrate sulfation assays were performed in solution with a 12-sipper chip coated with SR8 reagent and a Perkin Elmer EZ Reader II system 8 using an EDTA-based separation buffer and real-time kinetic evaluation of substrate sulfation. Pressure and voltage settings were adjusted manually to afford optimal separation of the sulfated product and non-sulfated substrate, with a sample (sip) volume of 20 nL, and total assay tim es appropriate for the experiment. The fluorophore tagged TPST1 peptide substrate and HS2ST1 glycan substrate where detected by the EZ Reader via LED-induced fluorescence.
(§5) Individual sulfation assays were assembled in a 384 well plate in a volume of 80 µL in the presence of […]
(§6) and 5 mM MgCl2. The degree of substrate sulfation was directly calculated using EZ Reader software by measuring the sulfo-product:non-sulfated substrate ratio at each time-point. The act ivity of the sulfotransferase enzymes in the presence of biochemicals and small molecule inhibitors was quantified in ‘kinetic mode’ by monitoring the amount of sulfated product generated over the assay time, relative to control assay with no additional inhibitor molecule (DMSO or buffer control). Data was normalized with respect to these control assays, with sulfate incorporation into the substr ate limited to ~ 20% to prevent depletion of PAPS and to ensure assay linearity. K m and IC50 values were determined by non-linear regression analysis with GraphPad Prism software. […]

HS2ST = biological target: T2, HS2ST (Gallus gallus, UniProt Q76KB1); assay: Microfluidic mobility shift sulfation assay, HS2ST (fluorescent hexasaccharide substrate); type: biochemical, chicken; details: for IC50: read-out: IC50 against HS2ST
T2 construct: made in house; host or cells: E. coli Rosetta-gami (DE3)
T2 sequence (Q76KB1 1-356): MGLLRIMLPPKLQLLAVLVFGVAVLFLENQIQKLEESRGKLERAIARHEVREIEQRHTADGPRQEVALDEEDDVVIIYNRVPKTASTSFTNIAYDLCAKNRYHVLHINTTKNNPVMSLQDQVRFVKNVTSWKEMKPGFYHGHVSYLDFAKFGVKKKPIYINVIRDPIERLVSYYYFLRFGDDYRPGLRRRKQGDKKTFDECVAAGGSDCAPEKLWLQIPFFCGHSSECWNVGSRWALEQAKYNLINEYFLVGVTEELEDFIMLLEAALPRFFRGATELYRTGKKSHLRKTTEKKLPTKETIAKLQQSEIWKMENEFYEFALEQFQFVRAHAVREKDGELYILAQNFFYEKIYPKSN
Experimental: as §1
Fig. 4 Summary of enzymatic inhibition assays against HS2ST and TPST1. (A) Enzymatic analysis of HS2ST1 inhibition by a panel of PAP- and PAPS-mimetic compounds. […] HS2ST sulfotransferase activity was assayed using a fluorescent hexasaccharide substrate (2 μM) and normalised to DMSO (4% v/v) or buffer control. Data shown is mean and SD of 4 repeat experiments. (B) Full dose–response curves for selected compounds. […] HS2ST activity calculated as previously described. Data from two independent experiments are combined. (C) Enzymatic analysis of TPST1 inhibition by a panel of PAP- and PAPS-mimetic compounds. […] TPST1 activity was measured using fluorescently-labelled CC4-tide (2 μM) and normalised to DMSO (4% v/v) or buffer control. (D) Full dose–response curves for selected compounds. […] TPST1 activity was measured using CC4-tide and normalised to DMSO or buffer controls as previously described. The data shown is from duplicate experiments.
N-sulfated, fluorescein-tagged HS2ST1 hexasaccharide glycan substrate (GlcNS-GlcA- GlcNS-IdoA-GlcNS-GlcA-fluorescein, where S=sulfation) containing L-IdoA at the third residue from the reducing end (to which a linker and the fluorophore were conjugated) was purchased from GLY CAN therapeutics. TPST1 peptide substrate (CC4-tide, 5-FAM-EDFED YEFDG-CONH2) was synthesised using solid-phase Fmoc chemistry (Pepceuticals, Leicester, UK). All standard laboratory biochemicals, were purchased from Sigma, and were of the highest analytical quality.
as §2
Recombinant Protein Production and SDS-PAGE […]
as §3, §4, §5, §6

Row | SMILES | IC50 (TPST1) [µM] | IC50 (HS2ST) [µM] | inhibitory activity against TPST1 (TPST1; compound 400 μM, TPST1 0.1 μM, PAPS 5 μM) | inhibitory activity against HS2ST (HS2ST; compound 400 μM, HS2ST 20 nM, PAPS 5 μM)
1 | Nc1ncnc2c1ncn2[C@H]1C[C@H](OP(=O)(O)O)[C@@H](COP(=O)(O)O)O1 [2′-deoxy-PAP] | 3.6 | 12.7 |  | 
2 | Nc1ncnc2c1ncn2[C@H]1C[C@H](O)[C@@H](Cn2cc(P(=O)(O)O)nn2)O1 [Compound 11] |  |  | inactive | inactive
3 | Nc1ncnc2c1ncn2[C@H]1C[C@H](OP(=O)(O)O)[C@@H](Cn2cc(P(=O)(O)O)nn2)O1 [Compound 12] | 100 to 300 | 100 to 300 |  | 
4 | Nc1ncnc2c1ncn2[C@H]1C[C@H](O)[C@@H](Cn2cc(P(=O)(O)OCc3ccccc3)nn2)O1 [Compound 13] | 100 to 300 | 100 to 300 |  | 

From paper PMC9072872, “Structure-based design of nucleoside-derived analogues as sulfotransferase inhibitors” (RSC Advances, 2019)
